This is an account of results in PubChem BioAssay AID292 (DTP/NCI, 2004).

This assay relates to B6C3F1 mice, ip Sarcoma M5076, median survival T/C. The experiment in a line: NCI In Vivo Anticancer Drug Screen. Data for tumor model Sarcoma M5076 (intraperitoneal) in B6C3F1 mice. The settings on record: endpoint: median survival time, schedule: Q04DX004 (ip), higher = longer survival. Here is the method:
The antitumor activity of compounds was measured in mice bearing transplantable tumors. Survival or tumor size were measured and the results are expressed as the measurement made in the treated group (T) divided by the measurement made in the vehicle treated control group (C). The tumor model used in this assay is Sarcoma M5076 (intraperitoneal) in B6C3F1 mice

[1] abbreviates: dose: 50.0 mg/kg/injection, vehicle: saline.
The mark [2] stands for this setting: dose: 50.0 mg/kg/injection, vehicle: suspension in saline.
Setting [3] is: dose: 100.0 mg/kg/injection, vehicle: saline.
Setting [4] is: dose: 100.0 mg/kg/injection, vehicle: suspension in saline.
Setting [5] is: dose: 200.0 mg/kg/injection, vehicle: saline.
Setting [6] is: dose: 200.0 mg/kg/injection, vehicle: suspension in saline.
[7] abbreviates: dose: 400.0 mg/kg/injection, vehicle: suspension in saline.
The mark [8] stands for this setting: dose: 3.0 mg/kg/injection, vehicle: saline.
The mark [9] stands for this setting: dose: 6.0 mg/kg/injection, vehicle: saline.
Setting [10] is: dose: 12.0 mg/kg/injection, vehicle: saline.
[11] abbreviates: dose: 25.0 mg/kg/injection, vehicle: saline.
[12] abbreviates: dose: 50.0 mg/kg/injection, vehicle: Klucel (hydroxypropylcellulose) (HPC).
Where [13] appears, read: dose: 100.0 mg/kg/injection, vehicle: Klucel (hydroxypropylcellulose) (HPC).
Setting [14] is: dose: 7.5 mg/kg/injection, vehicle: saline.
[15] abbreviates: dose: 15.0 mg/kg/injection, vehicle: saline.
The mark [16] stands for this setting: dose: 25.0 mg/kg/injection, vehicle: saline with Tween-80.
Where [17] appears, read: dose: 50.0 mg/kg/injection, vehicle: saline with Tween-80.
Where [18] appears, read: dose: 100.0 mg/kg/injection, vehicle: saline with Tween-80.
Where [19] appears, read: dose: 200.0 mg/kg/injection, vehicle: saline with Tween-80.

Structures are written as SMILES. “And” between values parts separate entries of the source, which are not always exact repeats. Identical values can stand only once. Inconclusive results and toxic doses are left out. Peptide text beside a SMILES is read from it. * marks the point of attachment. Trt = c1ccc(C(c2ccccc2)(c2ccccc2)*)cc1; Cbz = O=C(OCc1ccccc1)*; Bn = c1ccc(C*)cc1; βAla = NCCC(=O)O

For `CC#CCOCC(O)CCl` (stereo unspecified), the T/C under setting [1] is 99 % of control; the T/C under setting [2] is 102 % of control; the T/C under setting [3] was 98 % of control; the T/C under setting [4] was 102 % of control; the T/C under setting [5] was 103 % of control; the T/C under setting [6] is 102 % of control. The T/C under setting [7] was 100 % of control.

Take `Cc1ccc(C2=CSC3=NCCN23)cc1Cl`: the T/C by setting is: under setting [8], 103 % of control; under setting [9], 107 % of control; under setting [10], 104 % of control; (dose: 24.0 mg/kg/injection, vehicle: saline) 100 % of control; under setting [11], 104 % of control; under setting [1], 96 % of control.

Take `[N-]=[N+]=NCc1cnnn1C1OC(CO)C(O)C1O` (stereo unspecified): the T/C is, setting by setting: (dose: 37.5 mg/kg/injection, vehicle: saline) 104 % of control; (dose: 75.0 mg/kg/injection, vehicle: saline) 103 % of control; (dose: 150.0 mg/kg/injection, vehicle: saline) 104 % of control; (dose: 300.0 mg/kg/injection, vehicle: saline) 107 % of control; (dose: 600.0 mg/kg/injection, vehicle: saline) 103 % of control.

Turning to `COC(=O)C(CSC(c1ccccc1)(c1ccccc1)c1ccccc1)NC(=O)C(CSCc1ccccc1)NC(=O)CCNC(=O)OCc1ccccc1` (stereo unspecified) ({Cbz-βAla}-Cys(Bn)-Cys(Trt)-OMe; configuration not given here), the T/C runs as follows: under setting [12], 102 % of control; under setting [13], 97 % of control; (dose: 200.0 mg/kg/injection, vehicle: Klucel (hydroxypropylcellulose) (HPC)) 106 % of control; (dose: 400.0 mg/kg/injection, vehicle: Klucel (hydroxypropylcellulose) (HPC)) 89 % of control; (dose: 800.0 mg/kg/injection, vehicle: Klucel (hydroxypropylcellulose) (HPC)) 107 % of control.

Take `CN1CCC2CC1c1ccn(C)c1C2=O` (stereo unspecified): the T/C runs as follows: (dose: 3.75 mg/kg/injection, vehicle: saline) 106 % of control; under setting [14], 102 % of control; under setting [15], 107 % of control.

For the compound `CNCCN=c1ccc2c3c1c(O)c1c(O)ccc(=O)c1c3[nH]n2CCNCCO`, the T/C is 156 % of control (dose: 0.75 mg/kg/injection, vehicle: water); 162 % of control (dose: 1.5 mg/kg/injection, vehicle: water); 204 % of control (dose: 3.0 mg/kg/injection, vehicle: water); 245 % of control (dose: 6.25 mg/kg/injection, vehicle: water); 90 % of control (dose: 12.5 mg/kg/injection, vehicle: water).

Take `CCN(CC)Cc1c(OC)ccc2[nH]c3c4ccc(Cl)cc4ncc3c12`: the T/C reads like this: (dose: 15.63 mg/kg/injection, vehicle: saline with Tween-80) 104 % of control; (dose: 31.25 mg/kg/injection, vehicle: saline with Tween-80) 106 % of control; (dose: 62.5 mg/kg/injection, vehicle: saline with Tween-80) 105 % of control; (dose: 125.0 mg/kg/injection, vehicle: saline with Tween-80) 101 % of control; (dose: 250.0 mg/kg/injection, vehicle: saline with Tween-80) 100 % of control.

On to `CC(C)(C)CCC(Br)CBr` (stereo unspecified), for which the T/C runs as follows: (dose: 3.12 mg/kg/injection, vehicle: saline) 98 % of control; (dose: 3.12 mg/kg/injection, vehicle: suspension in saline) 95 % of control; (dose: 6.25 mg/kg/injection, vehicle: saline) 102 % of control; (dose: 6.25 mg/kg/injection, vehicle: suspension in saline) 97 % of control; (dose: 12.5 mg/kg/injection, vehicle: saline) 99 % of control; (dose: 12.5 mg/kg/injection, vehicle: suspension in saline) 99 % of control. Besides, the T/C runs as follows: under setting [11], 100 % of control; under setting [1], 100 % of control; under setting [2], 100 % of control and 106 % of control; under setting [4], 111 % of control; under setting [6], 106 % of control; under setting [7], 93 % of control.

For the compound `N=C(N)SCc1cccc2c(=O)cc(-c3ccccc3)oc12`, the T/C is, setting by setting: under setting [1], 98 % of control; under setting [2], 114 % of control; under setting [3], 102 % of control; under setting [4], 104 % of control; (dose: 144.0 mg/kg/injection, vehicle: suspension in saline) 105 % of control and 112 % of control; under setting [5], 106 % of control. The T/C was 104 % of control under setting [6]; 101 % of control and 109 % of control (dose: 240.0 mg/kg/injection, vehicle: suspension in saline); 102 % of control (dose: 400.0 mg/kg/injection, vehicle: saline); 101 % of control (dose: 666.67 mg/kg/injection, vehicle: suspension in saline); 100 % of control (dose: 1111.11 mg/kg/injection, vehicle: suspension in saline).

As to `CCN(CC)c1ccc2[nH]c3c(C(N)=O)cc(=O)c(=O)c=3oc2c1`, the T/C under setting [16] was 105 % of control, the T/C under setting [17] is 108 % of control, the T/C under setting [18] was 106 % of control and the T/C under setting [19] was 96 % of control.

For `O=C([O][Bi]([c]1ccccc1)[c]1ccccc1)c1ccccc1`, the T/C (dose: 6.25 mg/kg/injection, vehicle: Klucel (hydroxypropylcellulose) (HPC)) is 96 % of control; the T/C (dose: 12.5 mg/kg/injection, vehicle: Klucel (hydroxypropylcellulose) (HPC)) was 111 % of control; the T/C (dose: 25.0 mg/kg/injection, vehicle: Klucel (hydroxypropylcellulose) (HPC)) is 101 % of control; the T/C under setting [12] is 95 % of control; the T/C under setting [13] was 91 % of control.

For `CC(C)NCC(O)CC(c1ccccc1)c1ccccc1` (stereo unspecified), the T/C (dose: 12.5 mg/kg/injection, vehicle: saline with Tween-80) was 95 % of control; the T/C under setting [16] was 101 % of control; the T/C under setting [17] was 98 % of control; the T/C under setting [18] is 91 % of control.

Take `OCCOCCN1CCN(CCCN2c3ccccc3Sc3ccc(C(F)(F)F)cc32)CC1`: the T/C (dose: 0.75 mg/kg/injection, vehicle: saline) was 105 % of control; the T/C (dose: 1.5 mg/kg/injection, vehicle: saline) was 110 % of control; the T/C under setting [8] is 91 % of control; the T/C under setting [9] was 105 % of control; the T/C under setting [14] was 96 % of control and 100 % of control and 103 % of control; the T/C under setting [10] was 104 % of control. Also, the T/C was 102 % of control and 107 % of control and 119 % of control under setting [15]; 101 % of control and 107 % of control and 122 % of control (dose: 30.0 mg/kg/injection, vehicle: saline); 96 % of control (2×) and 101 % of control (dose: 60.0 mg/kg/injection, vehicle: saline).

`O=C(Nc1ccccc1)c1c(O)[nH]c(=O)[nH]c1=O`: the T/C by setting is: under setting [16], 102 % of control and 108 % of control; under setting [17], 98 % of control and 106 % of control and 110 % of control; under setting [18], 96 % of control and 111 % of control and 112 % of control; under setting [19], 109 % of control and 111 % of control and 119 % of control; (dose: 400.0 mg/kg/injection, vehicle: saline with Tween-80) 114 % of control.
